Laboratory results taken from PubChem BioAssay (NCI).
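A five-concentration, 48-hour dose response in 96-well plates underlies each endpoint, interpolated linearly between surrounding concentrations. TGI marks complete inhibition of growth.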

How the values were obtained:
Assay in all cases: NCI tumour cell line growth inhibition, 48 h
[1] = test system: 786-0 renal
[2] = test system: A498 renal
[3] = test system: A549 NSCLC
[4] = test system: ACHN renal
[5] = test system: BT-549 breast
[6] = test system: CAKI-1 renal
[7] = test system: CCRF-CEM leukemia
[8] = test system: COLO 205 colon
[9] = test system: DU-145 prostate
[10] = test system: EKVX NSCLC
[11] = test system: HCT-116 colon
[12] = test system: HCT-15 colon
[13] = test system: HL-60(TB) leukemia
[14] = test system: HOP-62 NSCLC
[15] = test system: HOP-92 NSCLC
[16] = test system: HS 578T breast
[17] = test system: HT29 colon
[18] = test system: IGROV1 ovarian
[19] = test system: K-562 leukemia
[20] = test system: KM12 colon
[21] = test system: LOX IMVI melanoma
[22] = test system: M14 melanoma
[23] = test system: MALME-3M melanoma
[24] = test system: MCF7 breast
[25] = test system: MDA-MB-231 breast
[26] = test system: MDA-MB-435
[27] = test system: MDA-N
[28] = test system: MOLT-4 leukemia
[29] = test system: NCI-H226 lung
[30] = test system: NCI-H23 lung
[31] = test system: NCI-H460 lung
[32] = test system: NCI-H522 lung
[33] = test system: NCI/ADR-RES ovarian
[34] = test system: OVCAR-3 ovarian
[35] = test system: OVCAR-4 ovarian
[36] = test system: OVCAR-5 ovarian
[37] = test system: OVCAR-8 ovarian
[38] = test system: PC-3 prostate
[39] = test system: RPMI-8226 leukemia
[40] = test system: RXF 393 renal
[41] = test system: SF-268 CNS
[42] = test system: SF-295 CNS
[43] = test system: SF-539 CNS
[44] = test system: SK-MEL-2 melanoma
[45] = test system: SK-MEL-28 melanoma
[46] = test system: SK-MEL-5 melanoma
[47] = test system: SK-OV-3 ovarian
[48] = test system: SN12C renal
[49] = test system: SNB-19 CNS
[50] = test system: SNB-75 CNS
[51] = test system: SR leukemia
[52] = test system: SW-620 colon
[53] = test system: T-47D breast
[54] = test system: TK-10 renal
[55] = test system: U251 CNS
[56] = test system: UACC-257 melanoma
[57] = test system: UACC-62 melanoma
[58] = test system: UO-31 renal
[59] = test system: HCC-2998 colon

Measured: TGI

CC(Br)C(=O)NC(CO)C(=O)O (stereo unspecified)
not listed: [59]
> 100 µM: all other assays above

COc1ccc2ccc3oc(=O)c(C)cc3c2c1
not listed: [12] | [15] | [47]
> 100 µM: all other assays above

O=c1c2ccccc2sc2c(CO)ccc(NCCN3CCCCC3)c12
17.4 µM: [42]
15.6 µM: [48] | [57]
13.1 µM: [41]
9.61 µM: [2]
12.1 µM: [54]
15 µM: [18]
3.82 µM: [22]
20.9 µM: [15]
15.5 µM: [37]
14.2 µM: [55]
11.6 µM: [27]
16.3 µM: [47]
3.76 µM: [56]
10.6 µM: [29]
15.9 µM: [16]
8.54 µM: [45]
3.86 µM: [32]
14.5 µM: [44]
9.97 µM: [33]
20 µM: [36]
11.2 µM: [52]
16.2 µM: [43]
7.18 µM: [9]
11.9 µM: [17]
16.6 µM: [10]
12.8 µM: [3]
14.6 µM: [14]
3.99 µM: [7]
15.1 µM: [38]
10.3 µM: [30]
13.3 µM: [6]
9.46 µM: [35]
11.8 µM: [11]
14.8 µM: [20]
7.92 µM: [26]
14 µM: [12]
9.45 µM: [4]
3.19 µM: [46]
4.6 µM: [39]
19.4 µM: [25]
11.4 µM: [24]
17.6 µM: [49]
8.37 µM: [31]
5.2 µM: [23]
7.72 µM: [40]
7.71 µM: [34] | [51]
23 µM: [5]
4.98 µM: [58]
20.6 µM: [53]
19.5 µM: [50]
4.78 µM: [8]
12.2 µM: [1]
11 µM: [13] | [21]
5.36 µM: [19] | [28]

Clc1cccc(-c2sc(-c3cccs3)cc2Cc2cccs2)c1
not listed: [2] | [34] | [36] | [44] | [55]
> 10 µM: all other assays above
